How the values were obtained:
NCI-H1975 [1] = assay: Antiproliferative activity in human NCI-H1975 cells assessed as inhibition of cell proliferation at 3.125 nM incubated for 72 hrs by MTT assay; type: functional; settings: NCI-H1975, 72 h
A549 [2] = assay: Cytotoxicity in human A549 cells assessed as reduction in cell viability incubated for 72 hrs by MTT assay; type: functional, cell-based; settings: A549, 72 h
A549 [3] = assay: Antitumor activity against human A549 cells xenografted in Balb/c nude mouse assessed as tumor volume at 6 mg/kg, iv dosed as Q3D x 3 weeks regime relative to untreated control; type: functional
A549 [4] = assay: Antiproliferative activity in human A549 cells assessed as inhibition of cell proliferation at 50 nM incubated for 72 hrs by MTT assay; type: functional; settings: A549, 72 h
A549 [5] = assay: Antiproliferative activity in human A549 cells assessed as inhibition of cell proliferation at 12.5 nM incubated for 72 hrs by MTT assay; type: functional; settings: A549, 72 h
A549 [6] = assay: Antiproliferative activity in human A549 cells assessed as inhibition of cell proliferation at 1.5625 nM incubated for 72 hrs by MTT assay; type: functional; settings: A549, 72 h
A549 [7] = assay: Antiproliferative activity in human A549 cells assessed as inhibition of cell proliferation at 25 nM incubated for 72 hrs by MTT assay; type: functional; settings: A549, 72 h
[8] = Toxicity in human A549 cells xenografted Balb/c nude mouse assessed as body weight change weight at 6 mg/kg, iv dosed on day 0, 3, 6, 9, 12, 15 and 18 regime (reference value: 6.96%); type: organism-based; settings: in vivo
NCI-H1975 [9] = assay: Antiproliferative activity in human NCI-H1975 cells assessed as inhibition of cell proliferation at 6.25 nM incubated for 72 hrs by MTT assay; type: functional; settings: NCI-H1975, 72 h
A549 [10] = assay: Antitumor activity against human A549 cells xenografted in Balb/c nude mouse assessed as tumor volume at 3 mg/kg, iv dosed as Q3D x 3 weeks regime relative to untreated control; type: functional
A549 [11] = assay: Antiproliferative activity in human A549 cells assessed as inhibition of cell proliferation at 3.125 nM incubated for 72 hrs by MTT assay; type: functional; settings: A549, 72 h
[12] = Toxicity in Balb/c nude mouse dosed intravenously every 3 days for consecutive 21 days; type: organism-based; settings: in vivo, iv
A549 [13] = assay: Antitumor activity against human A549 cells xenografted in Balb/c nude mouse assessed as tumor volume at 12 mg/kg, iv dosed as Q3D x 3 weeks regime relative to untreated control; type: functional
A549 [14] = assay: Antitumor activity against human A549 cells xenografted in Balb/c nude mouse assessed as tumor weight at 6 mg/kg, iv dosed as Q3D x 3 weeks regime (reference value: 0.596 +/- 0.042 g); type: functional
A549 [15] = assay: Antitumor activity against human A549 cells xenografted in Balb/c nude mouse assessed as tumor weight at 3 mg/kg, iv dosed as Q3D x 3 weeks regime (reference value: 0.596 +/- 0.042 g); type: functional
[16] = Toxicity in human A549 cells xenografted Balb/c nude mouse assessed as body weight change weight at 12 mg/kg, iv dosed on day 0, 3, 6, 9, 12, 15 and 18 regime (reference value: 6.96%); type: organism-based; settings: in vivo
A549 [17] = assay: Antitumor activity against human A549 cells xenografted in Balb/c nude mouse assessed as tumor weight at 12 mg/kg, iv dosed as Q3D x 3 weeks regime (reference value: 0.596 +/- 0.042 g); type: functional
[18] = Toxicity in human A549 cells xenografted Balb/c nude mouse assessed as body weight change weight at 3 mg/kg, iv dosed on day 0, 3, 6, 9, 12, 15 and 18 regime (reference value: 6.96%); type: organism-based; settings: in vivo
NCI-H1975 [19] = assay: Antiproliferative activity in human NCI-H1975 cells assessed as inhibition of cell proliferation at 50 nM incubated for 72 hrs by MTT assay; type: functional; settings: NCI-H1975, 72 h
NCI-H1975 [20] = assay: Cytotoxicity in human NCI-H1975 cells assessed as reduction in cell viability incubated for 72 hrs by MTT assay; type: functional, cell-based; settings: NCI-H1975, 72 h
NCI-H1975 [21] = assay: Antiproliferative activity in human NCI-H1975 cells assessed as inhibition of cell proliferation at 1.5625 nM incubated for 72 hrs by MTT assay; type: functional; settings: NCI-H1975, 72 h
NCI-H1975 [22] = assay: Antiproliferative activity in human NCI-H1975 cells assessed as inhibition of cell proliferation at 25 nM incubated for 72 hrs by MTT assay; type: functional; settings: NCI-H1975, 72 h
A549 [23] = assay: Antiproliferative activity in human A549 cells assessed as inhibition of cell proliferation at 6.25 nM incubated for 72 hrs by MTT assay; type: functional; settings: A549, 72 h
NCI-H1975 [24] = assay: Antiproliferative activity in human NCI-H1975 cells assessed as inhibition of cell proliferation at 12.5 nM incubated for 72 hrs by MTT assay; type: functional; settings: NCI-H1975, 72 h
[25] = Toxicity in human A549 cells xenografted Balb/c nude mouse assessed as body weight change weight at 10 mg/kg, iv dosed on day 0, 7 and 14 (reference value: 6.96%); type: organism-based; settings: in vivo
A549 [26] = assay: Antitumor activity against human A549 cells xenografted in Balb/c nude mouse assessed as tumor volume at 10 mg/kg, iv dosed as QW x 3 weeks regime relative to untreated control; type: functional
A549 [27] = assay: Antitumor activity against human A549 cells xenografted in Balb/c nude mouse assessed as tumor weight at 10 mg/kg, iv dosed as QW x 3 weeks regime (reference value: 0.596 +/- 0.042 g); type: functional
Tubulin (Homo sapiens) = Tubulin (Homo sapiens) (UniProt P68371+Q9H4B7+P0DPH7+P68366+Q13509+Q71U36+P04350+Q3ZCM7+P07437+P68363+Q9BQE3+Q6PEY2+Q13885+Q9BVA1+Q9BUF5); assay: Inhibition of tubulin (unknown origin) polymerization at 5 uM; type: protein-complex assay

Structure (SMILES) | inhibition at 0.003125 µM (NCI-H1975 [1]) [%] | IC50 (A549 [2]) [nM] | T/C (A549 [3]) [%] | inhibition at 0.05 µM (A549 [4]) [%] | inhibition at 0.0125 µM (A549 [5]) [%] | inhibition at 0.0015625 µM (A549 [6]) [%] | inhibition at 0.025 µM (A549 [7]) [%] | Activity [8] [%] | inhibition at 0.00625 µM (NCI-H1975 [9]) [%] | inhibition at 0.003125 µM (A549 [11]) [%] | T/C (A549 [13]) [%] | Activity (A549 [14]) [g] | Activity [16] [%] | Activity (A549 [17]) [g] | inhibition at 0.05 µM (NCI-H1975 [19]) [%] | IC50 (NCI-H1975 [20]) [nM] | inhibition at 0.0015625 µM (NCI-H1975 [21]) [%] | inhibition at 0.025 µM (NCI-H1975 [22]) [%] | inhibition at 0.00625 µM (A549 [23]) [%] | inhibition at 0.0125 µM (NCI-H1975 [24]) [%] | further results
[2H]/C(c1nc[nH]c1C(C)(C)C)=c1/[nH]c(=O)/c(=C/c2ccccc2)[nH]c1=O | 3.64 to 12.3 | 2.5 | 59.01 | 83.2 to 87.9 | 83.2 to 86.3 | 0.92 to 9.22 | 88 to 88.7 | 6.78 | 12.3 to 22.6 | 54.8 to 61.6 | 54.39 | 0.344 | 2.36 | 0.308 | 90.8 to 91.7 | 9.3 | 2.75 to 10.3 | 90.4 to 91.5 | 82 to 86.7 | 70.7 to 81.7 | T/C (A549 [10]): 70.88%; LD50 at 21 days [12]: 18.9 mg/kg; Activity (A549 [15]): 0.442 g; Activity [18]: 6.75%
CC(=O)O[C@@]12CO[C@@H]1C[C@H](O)[C@@]1(C)C(=O)[C@H](O)C3=C(C)[C@@H](OC(=O)[C@H](O)[C@@H](NC(=O)OC(C)(C)C)c4ccccc4)C[C@@](O)([C@@H](OC(=O)c4ccccc4)[C@H]21)C3(C)C [DOCETAXEL ANHYDROUS] | – | – | – | – | – | – | – | – | – | – | – | – | – | – | – | – | – | – | – | – | Activity [25]: -0.66%; T/C (A549 [26]): 26.5%; Activity (A549 [27]): 0.13 g
CC(C)(C)c1[nH]cnc1/C=c1\[nH]c(=O)/c(=C/c2ccccc2)[nH]c1=O [PLINABULIN] | 3.89 to 15.5 | 3.5 | 61.48 | 86.6 to 89.2 | 85.1 to 88.9 | 23.3 to 29.4 | 88.4 to 89.5 | 5.66 | 13.3 to 25.7 | 42.5 to 50.8 | 56.7 | 0.349 | 6.33 | 0.327 | 88.7 to 91.3 | 10.2 | 1.03 to 11.2 | 86.3 to 90.8 | 88 to 88.7 | 61.1 to 69.1 | inhibition (Tubulin (Homo sapiens)): 27.9%; inhibition (Tubulin (Homo sapiens); tested as the 2H-labelled form): 30.1%

Source: ChEMBL document CHEMBL4392834, “Polymorphs, co-crystal structure and pharmacodynamics study of MBRI-001, a deuterium-substituted plinabulin derivative as a tubulin polymerization inhibitor” (Bioorg Med Chem, 2019)
